Source: ChEMBL document CHEMBL1201862, “PubChem BioAssay data set” (2004)
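Each compound was tested at five concentrations against cells in 96-well plates for 48 hours. At the GI50, growth is halved.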 Active and inactive are the calls of the source. No stated cut-off is given here; in the data, active = GI50 up to about 1.1 µM and inactive = higher.

What was measured:
Test in all cases: NCI-60 cell line screen, 48 h
A498 = tested on: A498
A549 = tested on: A549
CAKI-1 = tested on: CAKI-1
CCRF-CEM = tested on: CCRF-CEM
COLO 205 = tested on: COLO 205
DLD-1 = tested on: DLD-1
DMS-114 = tested on: DMS-114
DMS-273 = tested on: DMS-273
EKVX = tested on: EKVX
HCC 2998 = tested on: HCC 2998
HCT-116 = tested on: HCT-116
HCT-15 = tested on: HCT-15
HL-60 = tested on: HL-60
HOP-18 = tested on: HOP-18
HOP-62 = tested on: HOP-62
HOP-92 = tested on: HOP-92
HT-29 = tested on: HT-29
IGROV-1 = tested on: IGROV-1
K562 = tested on: K562
KM-20L2 = tested on: KM-20L2
KM12 = tested on: KM12
LOX IMVI = tested on: LOX IMVI
M19-MEL = tested on: M19-MEL
MCF7 = tested on: MCF7
MOLT-4 = tested on: MOLT-4
Malme-3M = tested on: Malme-3M
NCI-H226 = tested on: NCI-H226
NCI-H23 = tested on: NCI-H23
NCI-H460 = tested on: NCI-H460
NCI-H522 = tested on: NCI-H522
NCI/ADR-RES = tested on: NCI/ADR-RES
OVCAR-3 = tested on: OVCAR-3
OVCAR-4 = tested on: OVCAR-4
OVCAR-5 = tested on: OVCAR-5
OVCAR-8 = tested on: OVCAR-8
RPMI-8226 = tested on: RPMI-8226
RXF 393 = tested on: RXF 393
SF-268 = tested on: SF-268
SF-295 = tested on: SF-295
SF-539 = tested on: SF-539
SK-MEL-28 = tested on: SK-MEL-28
SK-MEL-2 = tested on: SK-MEL-2
SK-MEL-5 = tested on: SK-MEL-5
SK-OV-3 = tested on: SK-OV-3
SN12C = tested on: SN12C
SNB-19 = tested on: SNB-19
SNB-75 = tested on: SNB-75
SNB-78 = tested on: SNB-78
SW-620 = tested on: SW-620
U-251 = tested on: U-251
UACC-257 = tested on: UACC-257
UACC-62 = tested on: UACC-62
UO-31 = tested on: UO-31
XF498 = tested on: XF498

## CN(C)CCOc1cc2c(c3ccccc13)-c1ccccc1C2O (centres undefined)
A498
  GI50: 15 µM (inactive)
A549
  GI50: 15.5 µM (inactive)
CAKI-1
  GI50: 12.9 µM (inactive)
CCRF-CEM
  GI50: 14.1 µM (inactive)
COLO 205
  GI50: 12.5 µM (inactive)
DLD-1
  GI50: 15.8 µM (inactive)
DMS-114
  GI50: 11.7 µM (inactive)
DMS-273
  GI50: 15 µM (inactive)
EKVX
  GI50: 14.8 µM (inactive)
HCC 2998
  GI50: 14.4 µM (inactive)
HCT-116
  GI50: 13.2 µM (inactive)
HCT-15
  GI50: 12.4 µM
HL-60
  GI50: 11.6 µM (inactive)
HOP-18
  GI50: 14.8 µM (inactive)
HOP-62
  GI50: 14.9 µM (inactive)
HOP-92
  GI50: 6.56 µM (inactive)
HT-29
  GI50: 13.5 µM (inactive)
IGROV-1
  GI50: 16.7 µM (inactive)
K562
  GI50: 18.6 µM (inactive)
KM-20L2
  GI50: 15.6 µM (inactive)
KM12
  GI50: 14.8 µM (inactive)
LOX IMVI
  GI50: 10.2 µM (inactive)
M19-MEL
  GI50: 16.6 µM (inactive)
MCF7
  GI50: 12.8 µM (inactive)
MOLT-4
  GI50: 3.33 µM (inactive)
Malme-3M
  GI50: 18.2 µM (inactive)
NCI-H226
  GI50: 13.7 µM (inactive)
NCI-H23
  GI50: 16.9 µM (inactive)
NCI-H460
  GI50: 7.21 µM (inactive)
NCI-H522
  GI50: 16 µM (inactive)
NCI/ADR-RES
  GI50: 3.49 µM (inactive)
OVCAR-3
  GI50: 15.6 µM (inactive)
OVCAR-4
  GI50: 17.9 µM (inactive)
OVCAR-5
  GI50: 13 µM (inactive)
OVCAR-8
  GI50: 11.7 µM (inactive)
RPMI-8226
  GI50: 12.6 µM (inactive)
RXF 393
  GI50: 1.47 µM (inactive)
SF-268
  GI50: 14.5 µM (inactive)
SF-295
  GI50: 13.5 µM (inactive)
SF-539
  GI50: 14.3 µM (inactive)
SK-MEL-28
  GI50: 16 µM (inactive)
SK-MEL-2
  GI50: 17.2 µM (inactive)
SK-MEL-5
  GI50: 15.5 µM (inactive)
SK-OV-3
  GI50: 16.1 µM (inactive)
SN12C
  GI50: 13.4 µM (inactive)
SNB-19
  GI50: 8.28 µM (inactive)
SNB-75
  GI50: 10.3 µM (inactive)
SNB-78
  GI50: 15.9 µM (inactive)
SW-620
  GI50: 12.4 µM (inactive)
U-251
  GI50: 15.5 µM (inactive)
UACC-257
  GI50: 15.5 µM (inactive)
UACC-62
  GI50: 17.2 µM (inactive)
UO-31
  GI50: 12.5 µM (inactive)
XF498
  GI50: 12.9 µM (inactive)
